{"source": "ChEMBL document CHEMBL4428086", "about": "“Quassinoids: Viral protein R inhibitors from Picrasma javanica bark collected in Myanmar for HIV infection” (Bioorg Med Chem Lett, 2016)", "format_in_all_cases": "cell-based", "key": {"[1]": {"tested_on": "Human immunodeficiency virus 1", "experiment": "Inhibition of c-myc and His6-tagged full length HIV1 NL4-3 Vpr transfected in human TREx-HeLa cells assessed as cell proliferation at 1.25 uM after 48 hrs in presence of tetracycline by WST-8 assay"}, "[2]": {"tested_on": "HeLa", "experiment": "Cytotoxicity against human TREx-HeLa cells assessed as cell viability at 2.5 uM after 48 hrs by WST-8 assay"}, "[3]": {"tested_on": "Human immunodeficiency virus 1", "experiment": "Inhibition of c-myc and His6-tagged full length HIV1 NL4-3 Vpr transfected in human TREx-HeLa cells assessed as cell proliferation at 1.25 uM after 48 hrs in presence of tetracycline by WST-8 assay (reference value: 100 +/- 1%)", "design": "scale not given: the % may be the effect or the level left"}, "[4]": {"tested_on": "Human immunodeficiency virus 1", "experiment": "Inhibition of c-myc and His6-tagged full length HIV1 NL4-3 Vpr transfected in human TREx-HeLa cells assessed as cell proliferation at 5 uM after 48 hrs in presence of tetracycline by WST-8 assay (reference value: 100 +/- 1%)", "design": "scale not given: the % may be the effect or the level left"}, "[5]": {"tested_on": "Human immunodeficiency virus 1", "experiment": "Inhibition of c-myc and His6-tagged full length HIV1 NL4-3 Vpr transfected in human TREx-HeLa cells assessed as cell proliferation at 2.5 uM after 48 hrs in presence of tetracycline by WST-8 assay (reference value: 100 +/- 1%)", "design": "scale not given: the % may be the effect or the level left"}}}
{"smiles": "COC1=CC[C@@H]2C[C@H]3OC(=O)C=C4C(C)=C(OC)C(=O)[C@H]([C@@]2(C)C1=O)[C@]43C", "values": [{"measurement": "inhibition", "setting": "[1]", "result": "Dose-dependent effect"}, {"measurement": "Activity", "setting": "[2]", "result": "Non-Toxic"}, {"measurement": "Activity", "setting": "[3]", "result": 175, "unit": "%"}, {"measurement": "Activity", "setting": "[4]", "result": 216, "unit": "%"}, {"measurement": "Activity", "setting": "[5]", "result": 214, "unit": "%"}]}
{"smiles": "COC1=C[C@@H](O)[C@@H]2C[C@H]3OC(=O)C[C@H]4C(C)=C(OC)C(=O)[C@H]([C@@]2(C)C1=O)[C@@]34C", "values": [{"measurement": "Activity", "setting": "[2]", "result": "Non-Toxic"}, {"measurement": "Activity", "setting": "[3]", "result": 140, "unit": "%"}, {"measurement": "Activity", "setting": "[4]", "result": 141, "unit": "%"}, {"measurement": "Activity", "setting": "[5]", "result": 138, "unit": "%"}]}
{"smiles": "COC1=C(C)[C@@H]2CC(=O)O[C@@H]3C[C@H]4CC[C@H](OC)C(=O)[C@]4(C)[C@@H](C1=O)[C@@]32C", "values": [{"measurement": "Activity", "setting": "[2]", "result": "Non-Toxic"}, {"measurement": "Activity", "setting": "[3]", "result": 165, "unit": "%"}, {"measurement": "Activity", "setting": "[4]", "result": 173, "unit": "%"}, {"measurement": "Activity", "setting": "[5]", "result": 168, "unit": "%"}]}
{"smiles": "COC1=C(OC)C(=O)[C@@]2(C)[C@H](C1)C[C@H]1OC(=O)C[C@H]3C(CO)=C(OC)C(=O)[C@H]2[C@@]13C", "values": [{"measurement": "Activity", "setting": "[2]", "result": "Non-Toxic"}, {"measurement": "Activity", "setting": "[3]", "result": 139, "unit": "%"}, {"measurement": "Activity", "setting": "[4]", "result": 127, "unit": "%"}, {"measurement": "Activity", "setting": "[5]", "result": 126, "unit": "%"}]}
{"smiles": "COC1=CC(=O)[C@@H]2C[C@H]3OC(=O)C[C@H]4C(C)=C(OC)C(=O)[C@H]([C@@]2(C)C1=O)[C@@]34C", "values": [{"measurement": "Activity", "setting": "[2]", "result": "Non-Toxic"}, {"measurement": "Activity", "setting": "[3]", "result": 117, "unit": "%"}, {"measurement": "Activity", "setting": "[4]", "result": 155, "unit": "%"}, {"measurement": "Activity", "setting": "[5]", "result": 155, "unit": "%"}]}
{"smiles": "COC1=C(OC)C(=O)[C@@]2(C)[C@H](C1)C[C@H]1OC(=O)C[C@@]3(O)C(C)=C(OC)C(=O)[C@H]2[C@@]13C", "values": [{"measurement": "Activity", "setting": "[2]", "result": "Non-Toxic"}, {"measurement": "Activity", "setting": "[3]", "result": 141, "unit": "%"}, {"measurement": "Activity", "setting": "[4]", "result": 139, "unit": "%"}, {"measurement": "Activity", "setting": "[5]", "result": 138, "unit": "%"}]}
{"smiles": "COC1=CC[C@@H]2C[C@H]3OC(O)C[C@H]4C(C)=C(OC)C(=O)[C@H]([C@@]2(C)C1=O)[C@@]34C", "note": "(stereo not given in full)", "values": [{"measurement": "Activity", "setting": "[2]", "result": "Non-Toxic"}, {"measurement": "Activity", "setting": "[3]", "result": 170, "unit": "%"}, {"measurement": "Activity", "setting": "[4]", "result": 178, "unit": "%"}, {"measurement": "Activity", "setting": "[5]", "result": 174, "unit": "%"}]}
{"smiles": "COC1=C(OC)C(=O)[C@@]2(C)[C@H](C1)C[C@H]1OC(=O)C[C@H]3C(C)=C(OC)C(=O)[C@H]2[C@@]13C", "values": [{"measurement": "Activity", "setting": "[2]", "result": "Non-Toxic"}, {"measurement": "Activity", "setting": "[3]", "result": 112, "unit": "%"}, {"measurement": "Activity", "setting": "[4]", "result": 134, "unit": "%"}, {"measurement": "Activity", "setting": "[5]", "result": 136, "unit": "%"}]}
{"smiles": "COC1=C(C)[C@@H]2CC(=O)O[C@@H]3C[C@H]4CC[C@H](O)C(=O)[C@]4(C)[C@@H](C1=O)[C@@]32C", "values": [{"measurement": "Activity", "setting": "[2]", "result": "Non-Toxic"}, {"measurement": "Activity", "setting": "[3]", "result": 156, "unit": "%"}, {"measurement": "Activity", "setting": "[4]", "result": 158, "unit": "%"}, {"measurement": "Activity", "setting": "[5]", "result": 156, "unit": "%"}]}
{"smiles": "COC1=C(C)[C@]2(O)CC(=O)O[C@@H]3C[C@H]4CC[C@H](O)C(=O)[C@]4(C)[C@@H](C1=O)[C@@]32C", "values": [{"measurement": "Activity", "setting": "[2]", "result": "Non-Toxic"}, {"measurement": "Activity", "setting": "[3]", "result": 162, "unit": "%"}, {"measurement": "Activity", "setting": "[4]", "result": 170, "unit": "%"}, {"measurement": "Activity", "setting": "[5]", "result": 166, "unit": "%"}]}
{"smiles": "COC1=CC[C@@H]2C[C@H]3OC(=O)C[C@H]4C(CO)=C(OC)C(=O)[C@H]([C@@]2(C)C1=O)[C@@]34C", "values": [{"measurement": "Activity", "setting": "[2]", "result": "Non-Toxic"}, {"measurement": "Activity", "setting": "[3]", "result": 148, "unit": "%"}, {"measurement": "Activity", "setting": "[4]", "result": 150, "unit": "%"}, {"measurement": "Activity", "setting": "[5]", "result": 147, "unit": "%"}]}
{"smiles": "COC1=C(CO)[C@@H]2CC(=O)O[C@@H]3C[C@H]4CC[C@H](O)C(=O)[C@]4(C)[C@@H](C1=O)[C@@]32C", "values": [{"measurement": "Activity", "setting": "[2]", "result": "Non-Toxic"}, {"measurement": "Activity", "setting": "[3]", "result": 102, "unit": "%"}, {"measurement": "Activity", "setting": "[4]", "result": 135, "unit": "%"}, {"measurement": "Activity", "setting": "[5]", "result": 137, "unit": "%"}]}
{"smiles": "COc1c(C=O)c(O)cc2c1C(=O)c1ccccc1C2=O", "note": "[DAMNACANTHAL]", "values": [{"measurement": "Activity", "setting": "[2]", "result": "Non-Toxic"}, {"measurement": "Activity", "setting": "[3]", "result": 203, "unit": "%"}, {"measurement": "Activity", "setting": "[4]", "result": 219, "unit": "%"}, {"measurement": "Activity", "setting": "[5]", "result": 218, "unit": "%"}]}
{"smiles": "COC1=CC[C@@H]2C[C@H]3OC(=O)C=C4C(CO)=C(OC)C(=O)[C@H]([C@@]2(C)C1=O)[C@]43C", "values": [{"measurement": "Activity", "setting": "[2]", "result": "Non-Toxic"}, {"measurement": "Activity", "setting": "[3]", "result": 132, "unit": "%"}, {"measurement": "Activity", "setting": "[4]", "result": 141, "unit": "%"}, {"measurement": "Activity", "setting": "[5]", "result": 140, "unit": "%"}]}
{"smiles": "COC1=CC[C@@H]2C[C@H]3OC(=O)C[C@H]4C(C)=C(OC)C(=O)[C@H]([C@@]2(C)C1=O)[C@@]34C", "values": [{"measurement": "Activity", "setting": "[2]", "result": "Non-Toxic"}, {"measurement": "Activity", "setting": "[3]", "result": 157, "unit": "%"}, {"measurement": "Activity", "setting": "[4]", "result": 163, "unit": "%"}, {"measurement": "Activity", "setting": "[5]", "result": 159, "unit": "%"}]}
{"smiles": "COC1=CC[C@@H]2C[C@H]3OC(=O)C[C@H]4C(C=O)=C(OC)C(=O)[C@H]([C@@]2(C)C1=O)[C@@]34C", "values": [{"measurement": "Activity", "setting": "[2]", "result": "Non-Toxic"}, {"measurement": "Activity", "setting": "[3]", "result": 131, "unit": "%"}, {"measurement": "Activity", "setting": "[4]", "result": 152, "unit": "%"}, {"measurement": "Activity", "setting": "[5]", "result": 153, "unit": "%"}]}
